# Reference: the kinase profiling compilation of Christmann-Franck et al. (2016)
# Experiments:
# Assay in all cases: KINOMEscan competition binding
# Conditions in all cases: compound 10.0 µM
# MAP3K10 (human) = MAP3K10 (human) (UniProt Q02779)
# STK32C (human) = STK32C (human) (UniProt Q86UX6)
# MAPK10 (human) = MAPK10 (human) (UniProt P53779)
# [1] = test system: ABL1 (human), P00519 [Y253F]
# AKT1 (human) = AKT1 (human) (UniProt P31749)
# RPS6KA2 KD1 (human) = RPS6KA2 KD1 (human) (UniProt Q15349)
# SRPK2 (human) = SRPK2 (human) (UniProt P78362)
# Chain of SRPK2 (human) (P78362 whole entry, looked up): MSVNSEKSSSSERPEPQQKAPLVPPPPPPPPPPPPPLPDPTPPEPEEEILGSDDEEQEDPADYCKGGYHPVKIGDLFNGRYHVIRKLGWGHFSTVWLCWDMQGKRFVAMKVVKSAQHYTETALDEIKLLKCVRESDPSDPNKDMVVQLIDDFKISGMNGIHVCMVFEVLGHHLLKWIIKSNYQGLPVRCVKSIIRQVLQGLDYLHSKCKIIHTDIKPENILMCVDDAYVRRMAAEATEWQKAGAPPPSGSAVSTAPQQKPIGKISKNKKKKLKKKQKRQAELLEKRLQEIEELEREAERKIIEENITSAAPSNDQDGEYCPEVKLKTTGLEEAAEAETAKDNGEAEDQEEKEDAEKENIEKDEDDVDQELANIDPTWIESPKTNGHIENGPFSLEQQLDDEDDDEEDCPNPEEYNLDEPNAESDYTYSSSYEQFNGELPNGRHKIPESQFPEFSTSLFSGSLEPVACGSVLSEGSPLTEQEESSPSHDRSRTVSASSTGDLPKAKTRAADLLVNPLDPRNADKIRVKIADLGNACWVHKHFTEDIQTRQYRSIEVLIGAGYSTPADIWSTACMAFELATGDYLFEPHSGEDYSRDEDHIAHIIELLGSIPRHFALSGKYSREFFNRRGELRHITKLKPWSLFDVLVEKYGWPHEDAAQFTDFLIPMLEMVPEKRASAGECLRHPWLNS
# SIK1 (human) = SIK1 (human) (UniProt P57059)
# RIPK4 (human) = RIPK4 (human) (UniProt P57078)
# MELK (human) = MELK (human) (UniProt Q14680)
# RIOK1 (human) = RIOK1 (human) (UniProt Q9BRS2)
# PTK6 (human) = PTK6 (human) (UniProt Q13882)
# NEK7 (human) = NEK7 (human) (UniProt Q8TDX7)
# Chain of NEK7 (human) (Q8TDX7 whole entry, looked up): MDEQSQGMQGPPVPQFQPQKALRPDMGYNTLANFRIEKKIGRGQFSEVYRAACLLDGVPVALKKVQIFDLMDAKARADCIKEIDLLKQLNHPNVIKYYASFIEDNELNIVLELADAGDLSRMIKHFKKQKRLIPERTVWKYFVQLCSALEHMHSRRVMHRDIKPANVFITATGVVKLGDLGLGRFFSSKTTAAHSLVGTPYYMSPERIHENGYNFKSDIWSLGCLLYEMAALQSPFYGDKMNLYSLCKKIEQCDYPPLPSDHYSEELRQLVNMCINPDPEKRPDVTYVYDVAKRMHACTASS
# MARK1 (human) = MARK1 (human) (UniProt Q9P0L2)
# RIPK1 (human) = RIPK1 (human) (UniProt Q13546)
# PIK3CB (human) = PIK3CB (human) (UniProt P42338)
# MAPKAPK2 (human) = MAPKAPK2 (human) (UniProt P49137)
# STK25 (human) = STK25 (human) (UniProt O00506)
# MYLK2 (human) = MYLK2 (human) (UniProt Q9H1R3)
# RPS6KA6 KD1 (human) = RPS6KA6 KD1 (human) (UniProt Q9UK32)
# DAPK3 (human) = DAPK3 (human) (UniProt O43293)
# PRKG2 (human) = PRKG2 (human) (UniProt Q13237)
# NEK1 (human) = NEK1 (human) (UniProt Q96PY6)
# Chain of NEK1 (human) (Q96PY6 whole entry, looked up): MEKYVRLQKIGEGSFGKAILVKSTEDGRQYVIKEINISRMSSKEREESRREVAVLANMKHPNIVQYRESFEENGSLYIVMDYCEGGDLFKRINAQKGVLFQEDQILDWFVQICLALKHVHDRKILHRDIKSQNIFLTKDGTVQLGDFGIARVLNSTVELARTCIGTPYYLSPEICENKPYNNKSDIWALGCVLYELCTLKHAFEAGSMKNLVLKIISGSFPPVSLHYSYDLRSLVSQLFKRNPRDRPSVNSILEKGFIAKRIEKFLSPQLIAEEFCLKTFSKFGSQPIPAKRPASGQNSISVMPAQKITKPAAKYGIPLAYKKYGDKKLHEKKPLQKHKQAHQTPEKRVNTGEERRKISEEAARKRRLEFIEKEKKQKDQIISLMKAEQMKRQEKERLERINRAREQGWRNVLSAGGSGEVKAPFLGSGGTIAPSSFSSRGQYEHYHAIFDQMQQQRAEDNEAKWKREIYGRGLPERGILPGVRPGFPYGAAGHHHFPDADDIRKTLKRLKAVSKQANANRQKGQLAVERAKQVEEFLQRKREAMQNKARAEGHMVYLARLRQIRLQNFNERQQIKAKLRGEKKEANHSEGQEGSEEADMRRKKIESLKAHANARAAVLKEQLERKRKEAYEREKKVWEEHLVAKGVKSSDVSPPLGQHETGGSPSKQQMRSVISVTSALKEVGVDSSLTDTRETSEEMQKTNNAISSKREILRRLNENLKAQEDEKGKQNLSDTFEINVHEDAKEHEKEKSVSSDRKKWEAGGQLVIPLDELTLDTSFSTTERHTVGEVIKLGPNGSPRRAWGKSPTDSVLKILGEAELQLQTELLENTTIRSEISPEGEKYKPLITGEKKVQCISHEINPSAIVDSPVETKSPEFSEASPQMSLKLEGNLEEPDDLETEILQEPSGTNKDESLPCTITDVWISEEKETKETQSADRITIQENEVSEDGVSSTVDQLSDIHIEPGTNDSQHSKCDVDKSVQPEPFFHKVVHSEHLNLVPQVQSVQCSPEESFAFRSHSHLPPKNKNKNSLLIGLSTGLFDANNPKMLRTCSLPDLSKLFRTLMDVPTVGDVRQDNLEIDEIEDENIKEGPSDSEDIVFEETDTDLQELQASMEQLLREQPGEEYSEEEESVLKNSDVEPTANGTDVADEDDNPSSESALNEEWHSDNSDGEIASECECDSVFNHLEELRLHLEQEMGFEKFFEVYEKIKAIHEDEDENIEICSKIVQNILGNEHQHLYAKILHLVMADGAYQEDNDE
# [2] = biological target: TYK2 JH1 catalytic (human) (UniProt P29597)
# FLT3 (human) = FLT3 (human) (UniProt P36888)
# Chain of FLT3 (human) (P36888 whole entry, looked up): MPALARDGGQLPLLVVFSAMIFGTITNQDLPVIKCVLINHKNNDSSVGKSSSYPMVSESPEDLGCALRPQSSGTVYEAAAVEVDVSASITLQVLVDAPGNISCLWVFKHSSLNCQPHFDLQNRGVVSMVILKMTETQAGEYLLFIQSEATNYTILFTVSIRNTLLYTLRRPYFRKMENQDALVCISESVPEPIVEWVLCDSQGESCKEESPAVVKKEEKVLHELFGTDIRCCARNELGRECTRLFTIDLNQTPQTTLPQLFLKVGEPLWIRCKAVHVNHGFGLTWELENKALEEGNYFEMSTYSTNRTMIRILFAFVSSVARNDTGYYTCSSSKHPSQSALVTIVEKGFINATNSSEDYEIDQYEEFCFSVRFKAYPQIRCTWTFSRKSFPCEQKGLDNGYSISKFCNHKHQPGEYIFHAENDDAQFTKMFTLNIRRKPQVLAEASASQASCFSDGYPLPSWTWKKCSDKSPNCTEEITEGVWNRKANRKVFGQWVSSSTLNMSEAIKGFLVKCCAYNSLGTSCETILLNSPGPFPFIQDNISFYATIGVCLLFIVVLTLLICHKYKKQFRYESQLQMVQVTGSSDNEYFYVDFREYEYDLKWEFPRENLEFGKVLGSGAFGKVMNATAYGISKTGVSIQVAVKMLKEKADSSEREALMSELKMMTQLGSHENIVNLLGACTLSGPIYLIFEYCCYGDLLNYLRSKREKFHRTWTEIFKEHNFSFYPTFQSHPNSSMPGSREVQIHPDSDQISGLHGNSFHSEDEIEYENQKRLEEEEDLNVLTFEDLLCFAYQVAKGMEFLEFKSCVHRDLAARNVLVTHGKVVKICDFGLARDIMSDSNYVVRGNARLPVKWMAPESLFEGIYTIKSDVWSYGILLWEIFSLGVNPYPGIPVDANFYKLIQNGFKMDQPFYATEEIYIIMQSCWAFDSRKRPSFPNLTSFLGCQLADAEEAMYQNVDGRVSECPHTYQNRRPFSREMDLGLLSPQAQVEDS
# EPHA3 (human) = EPHA3 (human) (UniProt P29320)
# FGFR2 (human) = FGFR2 (human) (UniProt P21802)
# STK4 (human) = STK4 (human) (UniProt Q13043)
# Chain of STK4 (human) (Q13043 whole entry, looked up): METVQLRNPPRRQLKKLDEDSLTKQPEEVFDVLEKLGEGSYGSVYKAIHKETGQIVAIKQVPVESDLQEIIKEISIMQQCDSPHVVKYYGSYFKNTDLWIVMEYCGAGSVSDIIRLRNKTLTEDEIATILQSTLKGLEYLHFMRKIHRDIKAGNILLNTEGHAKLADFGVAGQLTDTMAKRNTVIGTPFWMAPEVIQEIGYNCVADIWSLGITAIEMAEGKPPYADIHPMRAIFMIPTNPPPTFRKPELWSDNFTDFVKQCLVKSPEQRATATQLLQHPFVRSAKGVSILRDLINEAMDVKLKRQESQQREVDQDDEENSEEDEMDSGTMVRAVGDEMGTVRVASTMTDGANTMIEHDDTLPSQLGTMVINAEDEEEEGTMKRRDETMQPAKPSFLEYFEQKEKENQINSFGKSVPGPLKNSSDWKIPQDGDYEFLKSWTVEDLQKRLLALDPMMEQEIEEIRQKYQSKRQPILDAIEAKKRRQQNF
# PRKX (human) = PRKX (human) (UniProt P51817)
# Chain of PRKX (human) (P51817 whole entry, looked up): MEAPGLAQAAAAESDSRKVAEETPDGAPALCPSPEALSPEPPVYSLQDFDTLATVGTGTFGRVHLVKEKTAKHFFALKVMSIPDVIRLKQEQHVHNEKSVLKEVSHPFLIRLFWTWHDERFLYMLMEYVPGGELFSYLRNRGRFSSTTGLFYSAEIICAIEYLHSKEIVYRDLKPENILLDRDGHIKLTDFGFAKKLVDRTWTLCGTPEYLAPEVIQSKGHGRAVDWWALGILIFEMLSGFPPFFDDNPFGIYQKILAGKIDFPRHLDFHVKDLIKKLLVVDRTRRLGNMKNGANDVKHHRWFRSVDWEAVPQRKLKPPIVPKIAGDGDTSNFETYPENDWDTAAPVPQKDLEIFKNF
# GSK3A (human) = GSK3A (human) (UniProt P49840)
# CSF1R (human) = CSF1R (human) (UniProt P07333)
# GSK3B (human) = GSK3B (human) (UniProt P49841)
# RPS6KA2 KD2 (human) = RPS6KA2 KD2 (human) (UniProt Q15349)
# [3] = test system: EGFR (human), P00533 [747-751 del / S ins]
# Chain of MAP3K10 (human) (Q02779 whole entry, looked up): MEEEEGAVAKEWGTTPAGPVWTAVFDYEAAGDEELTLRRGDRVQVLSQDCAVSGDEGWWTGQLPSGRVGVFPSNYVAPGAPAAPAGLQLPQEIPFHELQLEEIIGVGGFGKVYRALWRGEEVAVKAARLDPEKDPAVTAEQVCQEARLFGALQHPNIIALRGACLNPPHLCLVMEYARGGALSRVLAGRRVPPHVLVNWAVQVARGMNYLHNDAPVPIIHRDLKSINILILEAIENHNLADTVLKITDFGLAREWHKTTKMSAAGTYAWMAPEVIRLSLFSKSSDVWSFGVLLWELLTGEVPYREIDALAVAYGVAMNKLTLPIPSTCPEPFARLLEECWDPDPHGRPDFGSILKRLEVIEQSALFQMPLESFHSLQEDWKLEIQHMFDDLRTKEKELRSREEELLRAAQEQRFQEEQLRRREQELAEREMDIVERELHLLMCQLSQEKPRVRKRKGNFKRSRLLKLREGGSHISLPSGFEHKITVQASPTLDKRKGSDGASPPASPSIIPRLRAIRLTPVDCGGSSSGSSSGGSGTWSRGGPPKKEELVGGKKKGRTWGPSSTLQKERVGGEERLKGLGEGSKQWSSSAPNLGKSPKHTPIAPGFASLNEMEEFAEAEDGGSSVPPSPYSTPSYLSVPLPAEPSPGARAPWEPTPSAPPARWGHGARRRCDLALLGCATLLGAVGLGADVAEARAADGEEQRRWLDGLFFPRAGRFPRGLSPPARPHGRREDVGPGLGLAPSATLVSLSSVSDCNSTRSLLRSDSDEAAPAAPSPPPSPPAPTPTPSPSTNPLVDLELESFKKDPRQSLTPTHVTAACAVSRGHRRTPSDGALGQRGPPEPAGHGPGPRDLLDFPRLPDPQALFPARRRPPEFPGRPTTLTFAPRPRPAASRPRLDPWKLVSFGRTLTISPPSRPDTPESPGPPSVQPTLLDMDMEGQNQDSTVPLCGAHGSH
Compound,"kinase still bound, per cent of control (MAP3K10 (human))","kinase still bound, per cent of control (STK32C (human))","kinase still bound, per cent of control (MAPK10 (human))","kinase still bound, per cent of control [1]","kinase still bound, per cent of control (AKT1 (human))","kinase still bound, per cent of control (RPS6KA2 KD1 (human))","kinase still bound, per cent of control (SRPK2 (human))","kinase still bound, per cent of control (SIK1 (human))","kinase still bound, per cent of control (MELK (human))","kinase still bound, per cent of control (RIOK1 (human))","kinase still bound, per cent of control (PTK6 (human))","kinase still bound, per cent of control (NEK7 (human))","kinase still bound, per cent of control (MARK1 (human))","kinase still bound, per cent of control (RIPK1 (human))","kinase still bound, per cent of control (MAPKAPK2 (human))","kinase still bound, per cent of control (STK25 (human))","kinase still bound, per cent of control (MYLK2 (human))","kinase still bound, per cent of control (RPS6KA6 KD1 (human))","kinase still bound, per cent of control (DAPK3 (human))","kinase still bound, per cent of control (PRKG2 (human))",further results
Cc1n[nH]c2ccc(-c3cncc(OC[C@@H](N)Cc4c[nH]c5ccccc45)c3)cc12,100%,100%,25%,100%,1.8%,29%,22%,100%,12%,2.8%,100%,100%,100%,100%,100%,100%,100%,100%,2.3%,5.7%,"kinase still bound, per cent of control (RIPK4 (human)): 100%; kinase still bound, per cent of control (PIK3CB (human)): 100%; kinase still bound, per cent of control (NEK1 (human)): 100%; kinase still bound, per cent of control [2]: 100%; kinase still bound, per cent of control (FLT3 (human)): 4.5%; kinase still bound, per cent of control (EPHA3 (human)): 100%; kinase still bound, per cent of control (FGFR2 (human)): 100%; kinase still bound, per cent of control (STK4 (human)): 100%; kinase still bound, per cent of control (PRKX (human)): 12%; kinase still bound, per cent of control (GSK3A (human)): 1%; kinase still bound, per cent of control (CSF1R (human)): 100%; kinase still bound, per cent of control (GSK3B (human)): 1%; kinase still bound, per cent of control (RPS6KA2 KD2 (human)): 100%"
CCN(CC)CCCCNc1ncc2cc(-c3cc(OC)cc(OC)c3)c(NC(=O)NC(C)(C)C)nc2n1,100%,100%,100%,100%,100%,100%,100%,100%,100%,100%,100%,100%,100%,100%,100%,9.4%,100%,100%,100%,100%,"kinase still bound, per cent of control (NEK1 (human)): 100%; kinase still bound, per cent of control [2]: 100%; kinase still bound, per cent of control (FLT3 (human)): 100%; kinase still bound, per cent of control (EPHA3 (human)): 100%; kinase still bound, per cent of control (STK4 (human)): 100%; kinase still bound, per cent of control (PRKX (human)): 100%; kinase still bound, per cent of control (GSK3A (human)): 100%; kinase still bound, per cent of control (CSF1R (human)): 6.6%; kinase still bound, per cent of control (GSK3B (human)): 100%; kinase still bound, per cent of control (RPS6KA2 KD2 (human)): 100%"
CNC(=O)c1ccc(Nc2cc(Nc3ccccc3S(=O)(=O)C(C)C)c3cc[nH]c3n2)nc1,18%,100%,17%,12%,100%,1.8%,24%,11%,100%,2%,25%,100%,26%,100%,100%,100%,100%,29%,100%,25%,"kinase still bound, per cent of control (RIPK4 (human)): 100%; kinase still bound, per cent of control (PIK3CB (human)): 100%; kinase still bound, per cent of control (NEK1 (human)): 100%; kinase still bound, per cent of control [2]: 0.25%; kinase still bound, per cent of control (FLT3 (human)): 2.4%; kinase still bound, per cent of control (EPHA3 (human)): 100%; kinase still bound, per cent of control (FGFR2 (human)): 25%; kinase still bound, per cent of control (STK4 (human)): 4.2%; kinase still bound, per cent of control (PRKX (human)): 100%; kinase still bound, per cent of control (GSK3A (human)): 18%; kinase still bound, per cent of control (CSF1R (human)): 30%; kinase still bound, per cent of control (GSK3B (human)): 100%; kinase still bound, per cent of control (RPS6KA2 KD2 (human)): 100%; kinase still bound, per cent of control [3]: 100%"
C=CC(=O)Nc1ccc(CN(C(=O)Nc2c(Cl)c(OC)cc(OC)c2Cl)c2cc(Nc3ccc(N4CCN(C)CC4)cc3)ncn2)cc1,13%,100%,100%,13%,100%,100%,100%,31%,100%,100%,100%,100%,100%,100%,100%,100%,100%,100%,100%,100%,"kinase still bound, per cent of control (RIPK4 (human)): 100%; kinase still bound, per cent of control (PIK3CB (human)): 100%; kinase still bound, per cent of control (NEK1 (human)): 100%; kinase still bound, per cent of control [2]: 12%; kinase still bound, per cent of control (FLT3 (human)): 6%; kinase still bound, per cent of control (EPHA3 (human)): 100%; kinase still bound, per cent of control (FGFR2 (human)): 1.9%; kinase still bound, per cent of control (STK4 (human)): 100%; kinase still bound, per cent of control (PRKX (human)): 100%; kinase still bound, per cent of control (GSK3A (human)): 100%; kinase still bound, per cent of control (CSF1R (human)): 0%; kinase still bound, per cent of control (GSK3B (human)): 100%; kinase still bound, per cent of control (RPS6KA2 KD2 (human)): 100%; kinase still bound, per cent of control [3]: 0.65%"
